{"source": "patent US20250230193A1", "about": "“CYCLIC COMPOUND HAVING SELECTIVE KRAS INHIBITORY EFFECT ON HRAS AND NRAS” (CHUGAI SEIYAKU KABUSHIKI KAISHA, priority 2022, published 2025)", "key": {"[1]": {"molecular_target": "GDP-bound NRAS wild-type protein (Homo sapiens, UniProt P01111)", "sequence (P01111 whole entry)": "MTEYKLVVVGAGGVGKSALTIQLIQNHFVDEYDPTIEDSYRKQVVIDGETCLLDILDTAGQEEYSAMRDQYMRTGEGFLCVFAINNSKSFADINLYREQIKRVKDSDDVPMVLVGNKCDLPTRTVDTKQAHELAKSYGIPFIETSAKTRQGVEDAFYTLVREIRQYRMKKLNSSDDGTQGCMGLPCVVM", "test": "Binding to NRAS by surface plasmon resonance (SPR), Single Cycle Kinetics", "details": "SPR"}, "[2]": {"molecular_target": "GDP-bound HRAS wild-type protein (Homo sapiens, UniProt P01112)", "sequence (P01112 whole entry)": "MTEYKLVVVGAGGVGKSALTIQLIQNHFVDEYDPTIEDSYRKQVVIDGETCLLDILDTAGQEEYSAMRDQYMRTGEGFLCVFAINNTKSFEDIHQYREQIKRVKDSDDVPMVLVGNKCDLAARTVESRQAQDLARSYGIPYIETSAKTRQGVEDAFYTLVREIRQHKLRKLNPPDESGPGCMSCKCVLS", "test": "Binding to HRAS by surface plasmon resonance (SPR), Single Cycle Kinetics", "details": "SPR"}, "[3]": {"details": "KD ratio, GDP-bound NRAS wild-type vs GDP-bound KRAS wild-type"}, "[4]": {"details": "KD ratio, GDP-bound HRAS wild-type vs GDP-bound KRAS wild-type"}}, "note": "*1 amine or outer side, *2 acyl side, *3 side chain or, on linkers, in order; H or OH if unused. Where a SMILES comes first, the peptide text is derived from it. Bridges are numbered along the chain shown (N, C = ends). [ ]: non-standard residue; d: D form. The star is where a group is joined. hPhe(3-Cl-4-CF3) = N[C@@H](CCc1ccc(C(F)(F)F)c(Cl)c1)C(=O)O; NPrPhe(4-CF3) = CCCN[C@@H](Cc1ccc(C(F)(F)F)cc1)C(=O)O; X49 = Cc1ccc(C[C@@H](C(=O)[*:2])N(CC2CC2)[*:1])cc1; NMeAbu(4,4,4-F3) = CN[C@@H](CC(F)(F)F)C(=O)O; NMeGly(cPent) = CN[C@H](C(=O)O)C1CCCC1; Aze(3S-Me) = C[C@H]1CN[C@@H]1C(=O)O; NMeD = CN[C@@H](CC(=O)O)C(=O)O; NMeL = CN[C@@H](CC(C)C)C(=O)O; Morpholide = C1CN(*)CCO1; NMeA = CN[C@@H](C)C(=O)O; Piperidide = C1CCN(*)CC1; Ac5c = NC1(C(=O)O)CCCC1; Aze = O=C(O)[C@@H]1CCN1; Sar = CNCC(=O)O", "data": [{"smiles": "CC[C@H](C)[C@@H]1NC(=O)[C@H](CC2CC2)N(C)C(=O)C[C@@H](C(=O)N(C)CC)N(C)C(=O)[C@H](C2CCCC2)N(C)C(=O)C2(CCC2)NC(=O)[C@@H]2CC(F)(F)CN2C(=O)[C@H](CCc2cc(F)c(C(F)(F)F)c(F)c2)NC(=O)CN(C)C(=O)[C@H](Cc2ccc(C(F)(F)F)cc2)N2CC/C=C\\C[C@@H](C2=O)N(C)C(=O)CN(C)C1=O", "note": "[PP1538]", "values": [{"measurement": "NRAS/KRAS (ratio of KD value for GDP-bound NRAS wild-type protein to KD value for KRAS)", "setting": "[1]; KD ratio class", "value": "A (a compound having 10 or more and less than 20 is denoted as A)"}, {"measurement": "HRAS/KRAS (ratio of KD value for GDP-bound HRAS wild-type protein to KD value for KRAS)", "setting": "[2]; KD ratio class", "value": "B (a compound having 3 or more and less than 10 is denoted as B)"}]}, {"smiles": "CCO[C@@H]1C[C@H]2C(=O)NC3(CCC3)C(=O)N(C)[C@@H](C3CCCC3)C(=O)N(C)[C@H](C(=O)N3CCOCC3)CC(=O)N(C)[C@@H](COC)C(=O)N[C@@H]([C@@H](C)CC)C(=O)N(C)CC(=O)N(C)[C@H]3CCCCN(C3=O)[C@@H](Cc3ccc(C(F)(F)F)cc3)C(=O)N(C)CC(=O)N[C@@H](CCc3cc(F)c(C(F)(F)F)c(F)c3)C(=O)N2C1", "note": "[PP0719]", "values": [{"measurement": "NRAS/KRAS (ratio of KD value with respect to GDP-bound NRAS wild-type protein to KD value with respect to KRAS)", "setting": "[1]", "value": "C (A compound having a KD ratio of 0.1 or more and less than 3 is denoted as C)"}, {"measurement": "HRAS/KRAS (ratio of KD value with respect to GDP-bound HRAS wild-type protein to KD value with respect to KRAS)", "setting": "[2]", "value": "B (a compound having 3 or more and less than 10 is denoted as B)"}]}, {"smiles": "CC[C@H](C)[C@@H]1NC(=O)[C@H](CC(C)C)N(C)C(=O)C[C@@H](C(=O)N2CCOCC2)N(C)C(=O)[C@H](C2CCCC2)N(C)C(=O)C2(CCCC2)NC(=O)[C@@H]2CCCN2C(=O)[C@H](CCc2ccc(C(F)(F)F)c(Cl)c2)NC(=O)CN(C)C(=O)[C@H](Cc2ccc(C)cc2)N(CC2CC2)C(=O)[C@@H]2CCN2C(=O)[C@H](C)N(C)C1=O", "note": "[PP0057] ([NMeL]I[NMeA][Aze][X49][Sar][hPhe(3-Cl-4-CF3)]P[Ac5c][NMeGly(cPent)][NMeD]-Morpholide; lactam N-11)", "values": [{"measurement": "NRAS/KRAS (ratio of KD for GDP-bound NRAS wild-type to KD for KRAS)", "setting": "[1]", "value": "C (A compound having a KD ratio of 0.1 or more and less than 3 is denoted as C)"}, {"measurement": "HRAS/KRAS (ratio of KD for GDP-bound HRAS wild-type to KD for KRAS)", "setting": "[2]", "value": "B (a compound having 3 or more and less than 10 is denoted as B)"}]}, {"smiles": "CCCN1C(=O)[C@@H]2CCN2C(=O)[C@H](C)N(C)C(=O)[C@H]([C@@H](C)CC)NC(=O)[C@H](CC(C)C)N(C)C(=O)C[C@@H](C(=O)N2CCCCC2)N(C)C(=O)[C@H](C2CCCC2)N(C)C(=O)C2(CCCC2)NC(=O)[C@@H]2CCCN2C(=O)[C@H](CCc2ccc(C(F)(F)F)c(Cl)c2)NC(=O)CN(C)C(=O)[C@@H]1Cc1ccc(C(F)(F)F)cc1", "note": "[PP0180] ([NMeL]I[NMeA][Aze][NPrPhe(4-CF3)][Sar][hPhe(3-Cl-4-CF3)]P[Ac5c][NMeGly(cPent)][NMeD]-Piperidide; lactam N-11)", "values": [{"measurement": "NRAS/KRAS (ratio of KD for GDP-bound NRAS wild-type to KD for KRAS)", "setting": "[1]", "value": "C (A compound having a KD ratio of 0.1 or more and less than 3 is denoted as C)"}, {"measurement": "HRAS/KRAS (ratio of KD for GDP-bound HRAS wild-type to KD for KRAS)", "setting": "[2]", "value": "C (A compound having a KD ratio of 0.1 or more and less than 3 is denoted as C)"}]}, {"smiles": "CCCN1C(=O)CN(C)C(=O)CN(C)C(=O)[C@H]([C@@H](C)CC)NC(=O)[C@H](CC(F)(F)F)N(C)C(=O)C[C@@H](C(=O)N2CCOCC2)N(C)C(=O)[C@H](C2CCCC2)N(C)C(=O)C2(CCCC2)NC(=O)[C@@H]2CCCN2C(=O)[C@H](CCc2ccc(C(F)(F)F)c(Cl)c2)NC(=O)CN(C)C(=O)[C@@H]1Cc1ccc(C(F)(F)F)cc1", "note": "[PP0187] ([NMeAbu(4,4,4-F3)]I[Sar][Sar][NPrPhe(4-CF3)][Sar][hPhe(3-Cl-4-CF3)]P[Ac5c][NMeGly(cPent)][NMeD]-Morpholide; lactam N-11)", "values": [{"measurement": "NRAS/KRAS (ratio of KD for GDP-bound NRAS wild-type to KD for KRAS)", "setting": "[1]", "value": "B (a compound having 3 or more and less than 10 is denoted as B)"}, {"measurement": "HRAS/KRAS (ratio of KD for GDP-bound HRAS wild-type to KD for KRAS)", "setting": "[2]", "value": "C (A compound having a KD ratio of 0.1 or more and less than 3 is denoted as C)"}]}, {"smiles": "CCCN(C)C(=O)[C@@H]1CC(=O)N(C)[C@@H](CCOC)C(=O)N[C@@H]([C@@H](C)CC)C(=O)N(C)CC(=O)N(C)[C@H]2C/C=C\\CCN(C2=O)[C@@H](Cc2ccc(C(F)(F)F)cc2)C(=O)N(C)CC(=O)N[C@@H](CCc2ccc(C(F)(F)F)c(OC)c2)C(=O)N2C[C@@H](C)C[C@H]2C(=O)NC2(CCC2)C(=O)N(C)[C@@H](C2CCCC2)C(=O)N1C", "note": "[PP2029]", "values": [{"measurement": "NRAS/KRAS (ratio of KD value for NRAS to KD value for KRAS)", "setting": "[1]; [3]", "value": "A (a compound having 10 or more and less than 20 is denoted as A)"}, {"measurement": "HRAS/KRAS (ratio of KD value for HRAS to KD value for KRAS)", "setting": "[2]; [4]", "value": "B (a compound having 3 or more and less than 10 is denoted as B)"}]}, {"smiles": "CCCN1C(=O)[C@@H]2[C@@H](C)CN2C(=O)[C@H](C)N(C)C(=O)[C@H]([C@@H](C)CC)NC(=O)[C@H](CC(C)C)N(C)C(=O)C[C@@H](C(=O)N2CCOCC2)N(C)C(=O)[C@H](C2CCCC2)N(C)C(=O)C2(CCCC2)NC(=O)[C@@H]2CCCN2C(=O)[C@H](CCc2ccc(C(F)(F)F)c(Cl)c2)NC(=O)CN(C)C(=O)[C@@H]1Cc1ccc(C(F)(F)F)cc1", "note": "[PP0141] ([NMeL]I[NMeA][Aze(3S-Me)][NPrPhe(4-CF3)][Sar][hPhe(3-Cl-4-CF3)]P[Ac5c][NMeGly(cPent)][NMeD]-Morpholide; lactam N-11)", "values": [{"measurement": "NRAS/KRAS (ratio of KD for GDP-bound NRAS wild-type to KD for KRAS)", "setting": "[1]", "value": "C (A compound having a KD ratio of 0.1 or more and less than 3 is denoted as C)"}, {"measurement": "HRAS/KRAS (ratio of KD for GDP-bound HRAS wild-type to KD for KRAS)", "setting": "[2]", "value": "B (a compound having 3 or more and less than 10 is denoted as B)"}]}, {"smiles": "CCO[C@@H]1C[C@H]2C(=O)NC3(CCC3)C(=O)N(C)[C@@H](C(CC)CC)C(=O)N(C)[C@H](C(=O)N3CCOCC3)CC(=O)N(C)[C@@H](CC(C)C)C(=O)N[C@@H]([C@@H](C)CC)C(=O)N(C)CC(=O)N(C)[C@H]3CCCCN(C3=O)[C@@H](Cc3ccc(C(F)(F)F)cc3)C(=O)N(C)CC(=O)N[C@@H](CCc3cc(F)c(C(F)(F)F)c(F)c3)C(=O)N2C1", "note": "[PP0811]", "values": [{"measurement": "NRAS/KRAS (ratio of KD value with respect to NRAS to KD value with respect to KRAS)", "setting": "[1]; [3]", "value": "B (a compound having 3 or more and less than 10 is denoted as B)"}, {"measurement": "HRAS/KRAS (ratio of KD value with respect to HRAS to KD value with respect to KRAS)", "setting": "[2]; [4]", "value": "B (a compound having 3 or more and less than 10 is denoted as B)"}]}, {"smiles": "CCC[C@H]1C(=O)N[C@@H]([C@@H](C)CC)C(=O)N(C)CC(=O)N(C)[C@H]2C/C=C\\CCN(C2=O)[C@@H](Cc2ccc(C(F)(F)F)cc2)C(=O)N(C)CC(=O)N[C@@H](CCc2ccc(C(F)(F)F)c(Cl)c2)C(=O)N2C[C@H](OCC)C[C@H]2C(=O)NC2(CC(C)(C)C2)C(=O)N(C)[C@@H](CC(F)(F)F)C(=O)N(C)[C@H](C(=O)N(C)C)CC(=O)N1C", "note": "[PP2975]", "values": [{"measurement": "NRAS/KRAS (ratio of KD value with respect to GDP-bound NRAS wild-type protein to KD value with respect to KRAS)", "setting": "[1]; GDP-bound wild-type proteins", "value": "A (a compound having 10 or more and less than 20 is denoted as A)"}, {"measurement": "HRAS/KRAS (ratio of KD value with respect to GDP-bound HRAS wild-type protein to KD value with respect to KRAS)", "setting": "[2]; GDP-bound wild-type proteins", "value": "A (a compound having 10 or more and less than 20 is denoted as A)"}]}, {"smiles": "CCO[C@@H]1C[C@H]2C(=O)NC3(CCC3)C(=O)N(C)[C@@H](C3CCCC3)C(=O)N(C)[C@H](C(=O)N(C)C)CC(=O)N(C)[C@@H](CC3CCCCC3)C(=O)N[C@@H]([C@@H](C)CC)C(=O)N(C)CC(=O)N(C)[C@H]3CCCCN(C3=O)[C@@H](Cc3ccc(C(F)(F)F)cc3)C(=O)N(C)CC(=O)N[C@@H](CCc3cc(F)c(C(F)(F)F)c(F)c3)C(=O)N2C1", "note": "[PP0701]", "values": [{"measurement": "NRAS/KRAS (ratio of KD value with respect to GDP-bound NRAS wild-type protein to KD value with respect to KRAS)", "setting": "[1]", "value": "C (A compound having a KD ratio of 0.1 or more and less than 3 is denoted as C)"}, {"measurement": "HRAS/KRAS (ratio of KD value with respect to GDP-bound HRAS wild-type protein to KD value with respect to KRAS)", "setting": "[2]", "value": "B (a compound having 3 or more and less than 10 is denoted as B)"}]}]}
